Where a name gives a salt, the structure may show the parent alone.
Test system: mice
Assay: Neuropharmacological Assay (SmartCube): automated behavioral signature of compound-treated mice compared with a database of reference drug classes
Type: in vivo
Conditions: for MED (minimal effective dose) / minimal effective dose: dose having 45% or more total activity in SmartCube, i.p., if only one dose was tested, that dose is shown; for AG / AN / AP / CE / HL / MS / PS / SH / AD / AX / UK: probability that activity matches this class of agents, 3.0 mg/kg i.p., 15 min before test; for minimal effective dose: Mus musculus, ip, read-out: MED (minimal effective dose)
Source text: Neurosci. 2011 Sep. 9; 5: 103 (doi: 10.3389/fnins.2011.00103) (“Roberds”). As reported in Roberds, because psychiatric diseases generally result from disorders of cell-cell communication or circuitry, intact systems are useful in detecting improvement in disease-relevant endpoints. These endpoints are typically behavioral in nature, often requiring human observation and interpretation. To facilitate testing of multiple compounds for behavioral effects relevant to psychiatric disease, PsychoGenics, Inc. (Tarrytown, NY, “PGI”) developed SmartCube™ an automated system in which behaviors of compound-treated mice are captured by digital video and analyzed with computer algorithms. (D. Brunner et al. Drug Discov. Today 2002, 7:S107-S112). PGI Analytical Systems uses data from SmartCube™ to compare the behavioral signature of a test compound to a database of behavioral signatures obtained using a large set of diverse reference compounds. (The composition of the database as well as validation of the method is further described in Roberds). In this way, the neuropharmacological effects of a test compound can be predicted by similarity to major classes of compounds, such as antipsychotics, anxiolytics and antidepressants.
The SmartCube™ system produces an activity signature indicating the probability that the activity of the test compound at the administered dose matches a given class of neuropharmacological agents. (See, e.g., Roberds, FIGS. 2 and 3). The test compound is simultaneously compared against multiple classes of agents; thus, a separate probability is generated for each behavioral effect measured (e.g., anxiolytic activity, analgesic activity, etc.). In table 2 below, these probabilities are reported for each behavioral effect measured as described in Table 1 below.
Provided compounds were dissolved in a mixture of Pharmasolve™ (N-methyl-2-pyrrolidone), polyethylene glycol and propylene glycol, and were injected i.p. 15 min. before the behavioral test. For each compound, injections were administered at 3 different doses. For each behavioral effect measured, results for the 3.0 mg/kg dose are presented. The potency of many of the compounds in the table was also determined in the SmartCube™ system. Test compounds were routinely examined at dose levels of 0.3, 1, 3 and 10 mg per kg (mpk), although the dose range was increased or decreased, if necessary, to obtain a full dose response curve. A compound's minimal effective dose (MED) is a measure of the compound's potency. The MED was defined as the dose (in mpk) having 45% or more total activity in SmartCube. If only one dose was tested, that dose is shown in the MED column of Table 2 even though the dose is not known to be the MED.

Structure (SMILES): CNC1COc2ccsc2C1 (single isomer, unassigned) [Compound 47, N-methyl-6,7-dihydro-5H-thieno[3,2-b]pyran-6-amine hydrochloride]
- MED (minimal effective dose) (hydrochloride): 0.3 mpk
- AG: ND (^ <4%)
- AN: ND (^ <4%)
- AP: ND (^ <4%)
- CE: ND (^ <4%)
- HL: ND (^ <4%)
- MS: ND (^ <4%)
- PS: ND (^ <4%)
- SH: ND (^ <4%)
- AD (hydrochloride, 3 mg/kg): ++++ (≥74%)
- AX (hydrochloride, 3 mg/kg): ND (^ <4%)
- UK (hydrochloride, 3 mg/kg): ND (^ <4%)

Structure (SMILES): CNC1(C)CCc2ccsc2C1 (single isomer, unassigned) [Compound 49, N, 6-dimethyl-5,7-dihydro-4H-benzothiophen-6-amine hydrochloride]
- MED (minimal effective dose) (hydrochloride): 1.0 mpk
- AG: ND (^ <4%)
- AN: ND (^ <4%)
- AP: ND (^ <4%)
- HL: ND (^ <4%)
- PS: ND (^ <4%)
- SH: ND (^ <4%)
- UK: ND (^ <4%)
- AD (hydrochloride, 3 mg/kg): ++ (≥24%)
- AX (hydrochloride, 3 mg/kg): ++ (≥24%)
- CE (hydrochloride, 3 mg/kg): + (≥4%)
- MS (hydrochloride, 3 mg/kg): + (≥4%)

Structure (SMILES): CNC1(C)CCc2ccsc2C1 (single isomer, unassigned) [Compound 50, N, 6-dimethyl-5,7-dihydro-4H-benzothiophen-6-amine hydrochloride]
- MED (minimal effective dose) (hydrochloride): 3.0 mpk
- AG: ND (^ <4%)
- AN: ND (^ <4%)
- AP: ND (^ <4%)
- HL: ND (^ <4%)
- PS: ND (^ <4%)
- SH: ND (^ <4%)
- UK: ND (^ <4%)
- AD (hydrochloride, 3 mg/kg): +++ (≥49%)
- AX (hydrochloride, 3 mg/kg): ND (^ <4%)
- CE (hydrochloride, 3 mg/kg): ND (^ <4%)
- MS (hydrochloride, 3 mg/kg): ND (^ <4%)

Structure (SMILES): CNC1COc2cscc2C1 (single isomer, unassigned) [Compound 51, N-methyl-3,4-dihydro-2H-thieno[3,4-b]pyran-3-amine hydrochloride]
- MED (minimal effective dose) (hydrochloride): >10 mpk
- AD: ND (^ <4%)
- AG: ND (^ <4%)
- AN: ND (^ <4%)
- CE: ND (^ <4%)
- HL: ND (^ <4%)
- MS: ND (^ <4%)
- PS: ND (^ <4%)
- SH: ND (^ <4%)
- UK: + (≥4%)
- AP (hydrochloride, 3 mg/kg): ND (^ <4%)
- AX (hydrochloride, 3 mg/kg): ND (^ <4%)

Structure (SMILES): CNC1COc2cscc2C1 (single isomer, unassigned) [Compound 52, N-methyl-3,4-dihydro-2H-thieno[3,4-b]pyran-3-amine hydrochloride]
- MED (minimal effective dose) (hydrochloride): 3.0 mpk
- AD: ND (^ <4%)
- AG: ND (^ <4%)
- AN: ND (^ <4%)
- CE: ND (^ <4%)
- HL: ND (^ <4%)
- MS: ND (^ <4%)
- PS: ND (^ <4%)
- SH: ND (^ <4%)
- UK: + (≥4%)
- AP (hydrochloride, 3 mg/kg): +++ (≥49%)
- AX (hydrochloride, 3 mg/kg): ++ (≥24%)

Structure (SMILES): CNC1CCc2csc(Cl)c2C1 (single isomer, unassigned) [Compound 55, 3-chloro-N-methyl-4,5,6,7-tetrahydro-2-benzothiophen-5-amine hydrochloride]
- minimal effective dose: 1 mg/kg
- AG: ND (^ <4%)
- AP: ++ (≥24%)
- CE: ND (^ <4%)
- HL: ND (^ <4%)
- MS: ND (^ <4%)
- PS: ND (^ <4%)
- SH: ND (^ <4%)
- UK: ND (^ <4%)
- AD (hydrochloride, 3 mg/kg): ++ (≥24%)
- AN (hydrochloride, 3 mg/kg): ND (^ <4%)
- AX (hydrochloride, 3 mg/kg): + (≥4%)

Structure (SMILES): CNC1CCc2csc(Cl)c2C1 (single isomer, unassigned) [Compound 56, 3-chloro-N-methyl-4,5,6,7-tetrahydro-2-benzothiophen-5-amine hydrochloride]
- MED (minimal effective dose): 1.0 mpk
- AG: ND (^ <4%)
- AP: ++ (≥24%)
- CE: ND (^ <4%)
- HL: ND (^ <4%)
- MS: ND (^ <4%)
- PS: ND (^ <4%)
- SH: ND (^ <4%)
- UK: ND (^ <4%)
- AD (hydrochloride, 3 mg/kg): ND (^ <4%)
- AN (hydrochloride, 3 mg/kg): + (≥4%)
- AX (hydrochloride, 3 mg/kg): ++ (≥24%)

Structure (SMILES): CNC1CCc2c(csc2Cl)C1 (single isomer, unassigned) [Compound 57, 1-chloro-N-methyl-4,5,6,7-tetrahydro-2-benzothiophen-5-amine hydrochloride]
- minimal effective dose: 1 mg/kg
- AG: ND (^ <4%)
- AN: ND (^ <4%)
- AX: ND (^ <4%)
- CE: ND (^ <4%)
- HL: ND (^ <4%)
- PS: ND (^ <4%)
- SH: ND (^ <4%)
- AD (hydrochloride, 3 mg/kg): ++ (≥24%)
- AP (hydrochloride, 3 mg/kg): ++ (≥24%)
- MS (hydrochloride, 3 mg/kg): ND (^ <4%)
- UK (hydrochloride, 3 mg/kg): + (≥4%)

Structure (SMILES): CNC1CCc2c(csc2Cl)C1 (single isomer, unassigned) [Compound 58, 1-chloro-N-methyl-4,5,6,7-tetrahydro-2-benzothiophen-5-amine hydrochloride]
- MED (minimal effective dose): 1.0 mpk
- AG: ND (^ <4%)
- AN: ND (^ <4%)
- AX: ND (^ <4%)
- CE: ND (^ <4%)
- HL: ND (^ <4%)
- PS: ND (^ <4%)
- SH: ND (^ <4%)
- AD (hydrochloride, 3 mg/kg): + (≥4%)
- AP (hydrochloride, 3 mg/kg): +++ (≥49%)
- MS (hydrochloride, 3 mg/kg): + (≥4%)
- UK (hydrochloride, 3 mg/kg): ND (^ <4%)

Structure (SMILES): CNC1CCc2c(Cl)sc(Cl)c2C1 (single isomer, unassigned) [Compound 59, 1,3-dichloro-N-methyl-4,5,6,7-tetrahydro-2-benzothiophen-5-amine hydrochloride]
- minimal effective dose: 3 mg/kg
- AD: ND (^ <4%)
- AG: ND (^ <4%)
- AN: ND (^ <4%)
- CE: ND (^ <4%)
- HL: ND (^ <4%)
- MS: ND (^ <4%)
- PS: ND (^ <4%)
- SH: ND (^ <4%)
- UK: ND (^ <4%)
- AP (hydrochloride, 3 mg/kg): +++ (≥49%)
- AX (hydrochloride, 3 mg/kg): ++ (≥24%)

Structure (SMILES): CNC1CCc2c(Cl)sc(Cl)c2C1 (single isomer, unassigned) [Compound 60, 1,3-dichloro-N-methyl-4,5,6,7-tetrahydro-2-benzothiophen-5-amine hydrochloride]
- MED (minimal effective dose): 3.0 mpk
- AD: ND (^ <4%)
- AG: ND (^ <4%)
- AN: ND (^ <4%)
- CE: ND (^ <4%)
- HL: ND (^ <4%)
- MS: ND (^ <4%)
- PS: ND (^ <4%)
- SH: ND (^ <4%)
- UK: ND (^ <4%)
- AP (hydrochloride, 3 mg/kg): + (≥4%)
- AX (hydrochloride, 3 mg/kg): +++ (≥49%)

Structure (SMILES): CNC1CCc2csc(C(F)(F)F)c2C1 (single isomer, unassigned) [Compound 61, N-methyl-3-(trifluoromethyl)-4,5,6,7-tetrahydro-2-benzothiophen-5-amine hydrochloride]
- MED (minimal effective dose) (hydrochloride): 3.0 mpk
- AG: ND (^ <4%)
- AN: ND (^ <4%)
- AX: ND (^ <4%)
- CE: ND (^ <4%)
- HL: ND (^ <4%)
- MS: ND (^ <4%)
- PS: ND (^ <4%)
- SH: ND (^ <4%)
- UK: ND (^ <4%)
- AD (hydrochloride, 3 mg/kg): + (≥4%)
- AP (hydrochloride, 3 mg/kg): +++ (≥49%)

Structure (SMILES): CNC1CCc2csc(C(F)(F)F)c2C1 (single isomer, unassigned) [Compound 62, N-methyl-3-(trifluoromethyl)-4,5,6,7-tetrahydro-2-benzothiophen-5-amine hydrochloride]
- MED (minimal effective dose) (hydrochloride): 1 mpk
- AG: ND (^ <4%)
- AN: ND (^ <4%)
- AX: ND (^ <4%)
- CE: ND (^ <4%)
- HL: ND (^ <4%)
- MS: ND (^ <4%)
- PS: ND (^ <4%)
- SH: ND (^ <4%)
- UK: ND (^ <4%)
- AD (hydrochloride, 3 mg/kg): ++++ (≥74%)
- AP (hydrochloride, 3 mg/kg): + (≥4%)

Reference: patent US20260274814A1, “THIENYL COMPOUNDS FOR THE TREATMENT OF A CENTRAL NERVOUS SYSTEM DISEASE OR DISORDER” (Coreterra Therapeutics, Inc., priority 2023, published 2026)
